Results as given in patent US20250221979A1, “NOVEL HETEROCYCLIC COMPOUND” (SHOUYAO HOLDINGS (BEIJING) CO., LTD., priority 2022, published 2025).
Counter-ions that a name gives are not always drawn.

These molecules were tested against human MAT2A enzyme (Homo sapiens (Human), UniProt P31153) (assay: In vitro enzymatic inhibition activity assay on MAT2A (PiColorLock phosphate detection)). Details: purified human MAT2A 10 nM, ATP 50 μM, L-methionine 100 μM, 6 h at 23° C.; read-out: MAT2A inhibitory activity IC50.
Type: biochemical
Method: Enzymatic activity assays of compounds of this patent against MAT2A (to detect half inhibitory concentration IC50 values of the compounds) were performed using the phosphate detection kit PiColorLockTM (ab270004, purchased from Abcam). This method utilized the principle that purified human MAT2A enzyme catalyzes the formation of S-adenosylmethionine (SAM) from L-methionine and ATP to release free phosphate, and used the spectrophotometric method to quantify phosphate, so as to determine the enzymatic activity of MAT2A. Compounds were diluted in a 10-fold gradient starting at 1 mM with 100% DMSO (for a total of 8 concentrations) and 2 μL of each concentration was added to 48 μL of reaction buffer (50 mM Tris-HCl PH 7.5, 50 mM KCl, 10 mM MgCl2, 0.01% Brij-35, 0.01% BSA, 1 mM DTT) and mixed well. The final diluted compound was prepared, and 5 μL of MAT2A enzyme (final concentration of 10 nM), 5 μL of ATP (final concentration of 50 μM), and 5 μL of L-methionine (final concentration of 100 μM) were added to each well of a 384-well plate (#3701, purchased from CORNING). After the 384-well plate was placed in the incubator at 23° C. for 6 h, 5 μL of PiColorLock reagent diluted Accelerator (dilution ratio 1:100) was added to each well, and the reaction was stopped by incubating in the incubator at 23° C. for 5 min. 2 μL of Stabiliser was added, the absorbance was read at 630 nm on BMG CLARIOstar, and the IC50 value of the compound was calculated by using GraphPad Prism software.
Under the conditions of this experiment, the inhibition of MAT2A by test compounds can be expressed as an IC50 value for the inhibition of the level of phosphate production during the enzymatic reaction.

human MAT2A enzyme, sequence (P31153 whole entry): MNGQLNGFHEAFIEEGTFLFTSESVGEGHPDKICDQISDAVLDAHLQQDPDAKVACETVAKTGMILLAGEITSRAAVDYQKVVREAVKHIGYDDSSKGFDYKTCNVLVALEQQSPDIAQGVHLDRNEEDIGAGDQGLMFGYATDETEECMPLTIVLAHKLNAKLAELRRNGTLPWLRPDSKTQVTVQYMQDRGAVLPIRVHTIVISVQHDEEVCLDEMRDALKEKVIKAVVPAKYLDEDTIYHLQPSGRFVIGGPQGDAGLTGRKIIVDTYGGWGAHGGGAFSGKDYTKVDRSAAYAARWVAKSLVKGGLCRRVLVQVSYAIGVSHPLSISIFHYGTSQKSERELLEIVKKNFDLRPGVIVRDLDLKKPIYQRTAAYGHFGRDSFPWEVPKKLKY

Point of comparison: `COC(=O)c1c(N)c2ccc(C3CC3)cc2n(-c2ccc(OC)cc2)c1=O` [Example 73, methyl 4-amino-7-cyclopropyl-1-(4-methoxyphenyl)-2-oxo-1-phenyl-1,2-dihydroquinoline-3-carboxylate], IC50 1.67 nM. Against it:
- N#Cc1c(N)c2ccc(I)cc2n(-c2ccccc2)c1=O [Example 4, 4-amino-7-iodo-2-oxo-1-phenyl-1,2-dihydroquinolin-3-carbonitrile] — within 1.5-fold, 2.28 nM
- COC(=O)c1c(N)c2ccc(I)cc2n(-c2ccccc2)c1=O [Example 16, methyl 4-amino-7-iodo-2-oxo-1-phenyl-1,2-dihydroquinoline-3—carboxylate] — within 1.5-fold, 1.23 nM
- COC(=O)c1c(N)c2ccc(C(F)(F)F)cc2n(-c2ccccc2)c1=O [Example 17, methyl 4-amino-7-trifluoromethyl-2-oxo-1-phenyl-1,2-dihydroquinoline-3-carboxylate] — 2.1-fold higher, 3.58 nM
- COC(=O)c1c(N)c2ccc(I)cc2n(-c2ccccc2C)c1=O [Example 19, methyl 4-amino-7-iodo-1-(2-methylphenyl)-2-oxo-1,2-dihydroquinoline-3-carboxylate] — within 1.5-fold, 2.34 nM
- COC(=O)c1c(N)c2ccc(I)cc2n(-c2ccccc2Cl)c1=O [Example 20, methyl 4-amino-7-iodo-1-(2-chlorophenyl)-2-oxo-1,2-dihydroquinoline-3-carboxylate] — 3.6-fold higher, 5.98 nM
- COC(=O)c1c(N)c2ccc(C(F)(F)F)cc2n(-c2cccc(CO)c2)c1=O [Example 21, methyl 4-amino-1-(3-(hydroxymethyl)phenyl)-2-oxo-7-(trifluoromethyl)-1,2-dihydroquinoline-3-carboxylate] — 3.9-fold higher, 6.58 nM
- C=Cc1ccc2c(N)c(C(=O)OC)c(=O)n(-c3ccccc3)c2c1 [Example 24, methyl 4-amino-7-vinyl-2-oxo-1-phenyl-1,2-dihydroquinoline-3—carboxylate] — within 1.5-fold, 2.34 nM
- COC(=O)c1c(N)c2ccc(C(F)(F)F)cc2n(-c2ccc(OC)cc2)c1=O [Example 25, methyl 4-amino-1-(4-methoxyphenyl)-2-oxo-7-(trifluoromethyl)-1,2-dihydro quinoline-3-carboxylate] — 3.9-fold lower, 0.43 nM
- COC(=O)c1c(N)c2ccc(C(F)(F)F)cc2n(-c2ccc3ccccc3c2)c1=O [Example 26, methyl 4-amino-1-(naphthalen-2-yl)-2-oxo-7-(trifluoromethyl)-1,2-dihydro quinoline-3-carboxylate] — 1.6-fold lower, 1.04 nM
- COC(=O)c1c(N)c2ccc(I)cc2n(Cc2ccccc2)c1=O [Example 28, methyl 4-amino-1-benzyl-7-iodo-2-oxo-1,2-dihydroquinoline-3-carboxylate] — 2.2-fold higher, 3.62 nM
- COC(=O)c1c(N)c2ccc(C(F)(F)F)cc2n(Cc2ccccc2)c1=O [Example 29, methyl 4-amino-1-benzyl-2-oxo-7-(trifluoromethyl)-1,2-dihydroquinoline-3-carboxylate] — 2.3-fold higher, 3.79 nM
- COC(=O)c1c(N)c2ccc(Br)cc2n(Cc2ccccc2)c1=O [Example 30, methyl 4-amino-1-benzyl-7-bromo-2-oxo-1,2-dihydroquinoline-3-carboxylate] — 3.7-fold higher, 6.1 nM
- Nc1c(C(=O)OC2CC2)c(=O)n(-c2ccccc2)c2cc(Cl)ccc12 [Example 49, cyclopropyl 4-amino-7-chloro-2-oxo-1-phenyl-1,2-dihydroquinolin-3-carboxylate] — 5.1-fold higher, 8.58 nM
- Nc1c(C(=O)OC2CC2)c(=O)n(-c2ccccc2)c2cc(I)ccc12 [Example 50, cyclopropyl 4-amino-7-iodo-2-oxo-1-phenyl-1,2-dihydroquinolin-3-carboxylate] — 2.7-fold higher, 4.57 nM
- Nc1c(C(=O)OC2CC2)c(=O)n(-c2ccccc2)c2cc(C(F)(F)F)ccc12 [Example 51, cyclopropyl 4-amino-2-oxo-1-phenyl-7-(trifluoromethyl)-1,2-dihydroquinolin-3-carboxylate] — 1.6-fold higher, 2.62 nM
- Cc1ccccc1-n1c(=O)c(C(=O)OC2CC2)c(N)c2ccc(I)cc21 [Example 52, cyclopropyl 4-amino-7-iodo-1-(2-methylphenyl)-2-oxo-1,2-dihydroquinolin-3-carboxylate] — within 1.5-fold, 2.38 nM
- COC(=O)c1c(N)c2ccc(I)cc2n(-c2cccc3c2CCO3)c1=O [Example 59, methyl 4-amino-1-(2,3-dihydro-1-benzofuran-4-yl)-7-iodo-2-oxo-1,2-dihydro quinoline-3-carboxylate] — 3.1-fold higher, 5.12 nM
- COC(=O)c1c(N)c2ccc(C(F)(F)F)cc2n(-c2ccc(OC(F)F)cc2)c1=O [Example 63, methyl 4-amino-1-(4-(difluoromethoxy)phenyl)-2-oxo-7-(trifluoromethyl)-1,2-dihydroquinoline-3-carboxylate] — within 1.5-fold, 1.58 nM
- COC(=O)c1c(N)c2ccc(C3CC3)cc2n(-c2ccccc2)c1=O [Example 66, methyl 4-amino-7-cyclopropyl-2-oxo-1-phenyl-1,2-dihydroquinoline-3-carboxylate] — 4-fold higher, 6.76 nM
- COC(=O)c1c(N)c2ccc(C(F)(F)F)cc2n(-c2ccccc2Cl)c1=O [Example 69, methyl 4-amino-1-(2-chlorophenyl)-2-oxo-7-(trifluoromethyl)-1,2-dihydro quinoline-3-carboxylate] — 3.8-fold higher, 6.39 nM
- COC(=O)c1c(N)c2ccc(C(F)(F)F)cc2n(-c2ccc3nc[nH]c3c2)c1=O [Example 76, methyl 4-amino-1-(3H-benzo[d]imidazol-5-yl)-2-oxo-7-(trifluoromethyl)-1,2-dihydroquinoline-3-carboxylate] — within 1.5-fold, 1.71 nM
- COC(=O)c1c(N)c2ccc(Br)cc2n(-c2ccc(F)cc2)c1=O [Example 78, methyl 4-amino-7-bromo-1-(4-fluorophenyl)-2-oxo-1,2-dihydroquinoline-3-carboxylate] — 1.6-fold higher, 2.72 nM
- COC(=O)c1c(N)c2ccc(I)cc2n(-c2ccc(OC)cc2)c1=O [Example 79, methyl 4-amino-7-iodo-1-(4-methoxyphenyl)-2-oxo-1,2-dihydroquinoline-3-carboxylate] — 2.7-fold lower, 0.61 nM
- COC(=O)c1c(N)c2ccc(C(F)(F)F)cc2n(-c2ccc(OC)cc2C)c1=O [Example 80, methyl 4-amino-1-(4-methoxy-2-methylphenyl)-2-oxo-7-(trifluoromethyl)-1,2-dihydroquinoline-3-carboxylate] — 2.4-fold higher, 4.03 nM
- COC(=O)c1c(N)c2ccc(C(F)(F)F)cc2n(-c2ccc(Br)cc2)c1=O [Example 81, methyl 4-amino-1-(4-bromophenyl)-2-oxo-7-(trifluoromethyl)-1,2-dihydro quinoline-3-carboxylate] — within 1.5-fold, 1.68 nM
- COC(=O)c1c(N)c2ccc(Br)cc2n(-c2ccc(OC(F)F)cc2)c1=O [Example 83, methyl 4-amino-7-bromo-1-(4-((difluoromethyl)oxy)phenyl)-2-oxo-1,2-dihydroquinoline-3-carboxylate] — within 1.5-fold, 1.21 nM
- COC(=O)c1c(N)c2ccc(Br)cc2n(-c2ccc(OC)cc2)c1=O [Example 87, methyl 4-amino-7-bromo-1-(4-methoxyphenyl)-2-oxo-1,2-dihydroquinoline-3-carboxylate] — within 1.5-fold, 1.86 nM
- COC(=O)c1c(N)c2ccc(Br)cc2n(-c2ccc(Cl)cc2)c1=O [Example 91, methyl 4-amino-7-bromo-1-(4-chlorophenyl)-2-oxo-1,2-dihydroquinoline-3-carboxylate] — 1.8-fold lower, 0.93 nM
- COC(=O)c1c(N)c2ccc(C(F)(F)F)cc2n(-c2ccccc2Br)c1=O [Example 93, methyl 4-amino-1-(2-bromophenyl)-2-oxo-7-(trifluoromethyl)-1,2-dihydroquinoline-3-carboxylate] — 4.4-fold higher, 7.39 nM
- COC(=O)c1c(N)c2ccc(C(F)(F)F)cc2n(-c2ccc(OC)cc2F)c1=O [Example 97, methyl 4-amino-1-(2-fluoro-4-methoxyphenyl)-2-oxo-7-(trifluoromethyl)-1,2-dihydroquinoline-3-carboxylate] — 6-fold higher, 9.95 nM
- COC(=O)c1c(N)c2ccc(Br)cc2n(-c2ccc(C)cc2)c1=O [Example 101, methyl 4-amino-7-bromo-1-(4-methylphenyl)-2-oxo-1,2-dihydroquinoline-3-carboxylate] — 2.8-fold lower, 0.59 nM
- COC(=O)c1c(N)c2ccc(Br)cc2n(-c2ccc(Br)cc2)c1=O [Example 107, methyl 4-amino-7-bromo-1-(4-bromophenyl)-2-oxo-1,2-dihydroquinoline-3-carboxylate] — within 1.5-fold, 1.52 nM
- COC(=O)c1c(N)c2ccc(C(F)(F)F)cc2n(-c2ccc3c(c2)OCC3)c1=O [Example 111, methyl 4-amino-1-(2,3-dihydro-1-benzofuran-6-yl)-2-oxo-7-(trifluoromethyl)-1,2-dihydroquinoline-3-carboxylate] — 2.4-fold higher, 4.06 nM
- CNc1ccc(-n2c(=O)c(C(=O)OC)c(N)c3ccc(C(F)(F)F)cc32)cc1 [Example 115, methyl 4-amino-1-(4-(methylamino)phenyl)-2-oxo-7-(trifluoromethyl)-1,2-dihydroquinoline-3-carboxylate hydrochloride] — 1.7-fold higher, 2.89 nM
